Results taken from patent publication US20070160725A1, “Use of extracts and compounds of allium-genus plants as preservatives in the food and agri-food industries” (MOUSALA, S., L., priority 2004, published 2007).

Experiments:
Test in all cases: agar diffusion, inhibition halo
Assay type in all cases: cell-based
[1] = test system: Aspergillus terreus, isolated from the environment of the cheese maturation chamber
Description: (§1) In order to evaluate the antimicrobial activity the agar diffusion technique with cellulose discs of 6 mm in diameter impregnated with the different active ingredient testing doses was used.
(§2) Antifungal capacity was assessed against suspensions of […], harvested from pure cultures of the selected molds and against suspensions of 10^7 cells/ml for the case of yeasts. The culture medium used was the 2% Sabouraud-glucose medium (Merck).
(§3) After incubating the culture dishes inoculated with the different organisms at the corresponding temperatures, the microbial inhibition halos that appeared were measured, and said measurement includes the 6 mm diameter of the cellulose discs.

[2] = test system: Penicillium sp, isolated from cheese
Description: as §1, §2, §3

[3] = test system: Candida krusei, isolated from cheese
Description: as §1, §2, §3

[4] = test system: Geotrichum candidum CECT 1902
Description: as §1, §2, §3

[5] = test system: Aspergillus niger, CECT 2700
Description: as §1, §2, §3

[6] = test system: Penicillium italicum CECT 2294; conditions: for zone of inhibition at 125 ppm / zone of inhibition at 250 ppm / zone of inhibition at 500 ppm / zone of inhibition at 1000 ppm: CECT2294, read-out: inhibition halo diameter
Description: as §1, §2, §3

[7] = test system: Escherichia coli, CECT 515
Description: as §1
(§4) Antibacterial capacity was assessed against suspensions of 10^6 cells/ml, prepared from pure young cultures of each one of the strains to be tested. The culture medium used was Müller-Hinton medium (Merck).
as §3

[8] = test system: Bacillus cereus, CECT 1178
Description: as §1, §4, §3

[9] = test system: Listeria monocytogenes, ATCC 15313
Description: as §1, §4, §3

[10] = test system: Bacillus subtilis, isolated from paprika
Description: as §1, §4, §3

[11] = test system: Trichoderma aureoviride CECT 20102
Description: as §1, §2, §3

[12] = test system: Rhizopus stolonifer CECT 2344
Description: as §1, §2, §3

[13] = test system: Mucor plumbeus, isolated from cheese; conditions: 1000 ppm
Description: as §1, §2, §3

[14] = test system: Staphylococcus aureus, isolated from hamburgers; conditions: 1000 ppm
Description: as §1, §4, §3

[15] = test system: Salmonella typhimurium, ATCC 13311; conditions: 1000 ppm
Description: as §1, §4, §3

[16] = 1000 ppm (active ingredient, dose in ppm)
[17] = 2000 ppm (active ingredient, dose in ppm)
[18] = 4000 ppm (active ingredient, dose in ppm)
[19] = 6000 ppm (active ingredient, dose in ppm)
[20] = Penicillium italicum, CECT2294, read-out: inhibition halo diameter

C=CCSSC=CC[S+]([O-])CC=C (mixture of isomers) [Ajoene, (E)-(Z)-ajoene]
inhibition halo diameter ([1]; 125 ppm): 18 mm | inhibition halo diameter ([1]; 250 ppm): 21 mm | inhibition halo diameter ([1]; 500 ppm): 32 mm | inhibition halo diameter ([1]; 1000 ppm): 40 mm | inhibition halo diameter ([2]; 125 ppm): 12 mm | inhibition halo diameter ([2]; 250 ppm): 27 mm | inhibition halo diameter ([2]; 500 ppm): 40 mm | inhibition halo diameter ([2]; 1000 ppm): 40 mm | inhibition halo diameter ([3]; 125 ppm): 26 mm | inhibition halo diameter ([3]; 250 ppm): 32 mm | inhibition halo diameter ([3]; 500 ppm): 38 mm | inhibition halo diameter ([3]; 1000 ppm): 42 mm | inhibition halo diameter ([4]; 125 ppm): 14 mm | inhibition halo diameter ([4]; 250 ppm): 20 mm | inhibition halo diameter ([4]; 500 ppm): 26 mm | inhibition halo diameter ([4]; 1000 ppm): 34 mm | inhibition halo diameter ([5]; 125 ppm): 11 mm | inhibition halo diameter ([5]; 250 ppm): 13 mm | inhibition halo diameter ([5]; 500 ppm): 24 mm | inhibition halo diameter ([5]; 1000 ppm): 27 mm | zone of inhibition at 125 ppm ([6]; Penicillium italicum): 18 mm | zone of inhibition at 250 ppm ([6]; Penicillium italicum): 24 mm | zone of inhibition at 500 ppm ([6]; Penicillium italicum): 44 mm | zone of inhibition at 1000 ppm ([6]; Penicillium italicum): 50 mm | inhibition halo diameter ([7]; 125 ppm): 7 mm | inhibition halo diameter ([7]; 250 ppm): 9 mm | inhibition halo diameter ([7]; 500 ppm): 11 mm | inhibition halo diameter ([7]; 1000 ppm): 13 mm | inhibition halo diameter ([8]; 125 ppm): 18 mm | inhibition halo diameter ([8]; 250 ppm): 24 mm | inhibition halo diameter ([8]; 500 ppm): 30 mm | inhibition halo diameter ([8]; 1000 ppm): 36 mm | inhibition halo diameter ([9]; 125 ppm): 16 mm | inhibition halo diameter ([9]; 250 ppm): 18 mm | inhibition halo diameter ([9]; 500 ppm): 20 mm | inhibition halo diameter ([9]; 1000 ppm): 30 mm | inhibition halo diameter ([10]; 125 ppm): 36 mm | inhibition halo diameter ([10]; 250 ppm): 40 mm | inhibition halo diameter ([10]; 500 ppm): 54 mm | inhibition halo diameter ([10]; 1000 ppm): 62 mm

C=CC1SC=CCS1 (centres unmarked) [2-vinyl-4H-1,3-dithiin]
inhibition halo diameter ([1]; 125 ppm): 0 mm | inhibition halo diameter ([1]; 250 ppm): 0 mm | inhibition halo diameter ([1]; 500 ppm): 6 mm | inhibition halo diameter ([1]; 1000 ppm): 7 mm | inhibition halo diameter ([2]; 125 ppm): 0 mm | inhibition halo diameter ([2]; 250 ppm): 8 mm | inhibition halo diameter ([2]; 500 ppm): 10 mm | inhibition halo diameter ([2]; 1000 ppm): 12 mm | inhibition halo diameter ([3]; 125 ppm): 7 mm | inhibition halo diameter ([3]; 250 ppm): 10 mm | inhibition halo diameter ([3]; 500 ppm): 10 mm | inhibition halo diameter ([3]; 1000 ppm): 12 mm | inhibition halo diameter ([4]; 125 ppm): 7 mm | inhibition halo diameter ([4]; 250 ppm): 7 mm | inhibition halo diameter ([4]; 500 ppm): 10 mm | inhibition halo diameter ([4]; 1000 ppm): 15 mm | inhibition halo diameter ([5]; 125 ppm): 7 mm | inhibition halo diameter ([5]; 250 ppm): 7 mm | inhibition halo diameter ([5]; 500 ppm): 10 mm | inhibition halo diameter ([5]; 1000 ppm): 15 mm | zone of inhibition at 125 ppm ([6]; Penicillium italicum): 0 mm | zone of inhibition at 250 ppm ([6]; Penicillium italicum): 0 mm | zone of inhibition at 500 ppm ([6]; Penicillium italicum): 8 mm | zone of inhibition at 1000 ppm ([6]; Penicillium italicum): 10 mm | inhibition halo diameter ([7]; 125 ppm): 0 mm | inhibition halo diameter ([7]; 250 ppm): 0 mm | inhibition halo diameter ([7]; 500 ppm): 0 mm | inhibition halo diameter ([7]; 1000 ppm): 0 mm | inhibition halo diameter ([8]; 125 ppm): 7 mm | inhibition halo diameter ([8]; 250 ppm): 9 mm | inhibition halo diameter ([8]; 500 ppm): 10 mm | inhibition halo diameter ([8]; 1000 ppm): 12 mm | inhibition halo diameter ([9]; 125 ppm): 0 mm | inhibition halo diameter ([9]; 250 ppm): 7 mm | inhibition halo diameter ([9]; 500 ppm): 8 mm | inhibition halo diameter ([9]; 1000 ppm): 10 mm | inhibition halo diameter ([10]; 125 ppm): 7 mm | inhibition halo diameter ([10]; 250 ppm): 10 mm | inhibition halo diameter ([10]; 500 ppm): 13 mm | inhibition halo diameter ([10]; 1000 ppm): 15 mm

C=CC1CC=CSS1 (centres unmarked) [3-vinyl-4H-1,2-dithiin]
inhibition halo diameter ([1]; 125 ppm): 0 mm | inhibition halo diameter ([1]; 250 ppm): 0 mm | inhibition halo diameter ([1]; 500 ppm): 0 mm | inhibition halo diameter ([1]; 1000 ppm): 0 mm | inhibition halo diameter ([2]; 125 ppm): 0 mm | inhibition halo diameter ([2]; 250 ppm): 6 mm | inhibition halo diameter ([2]; 500 ppm): 7 mm | inhibition halo diameter ([2]; 1000 ppm): 10 mm | inhibition halo diameter ([3]; 125 ppm): 0 mm | inhibition halo diameter ([3]; 250 ppm): 7 mm | inhibition halo diameter ([3]; 500 ppm): 8 mm | inhibition halo diameter ([3]; 1000 ppm): 10 mm | inhibition halo diameter ([4]; 125 ppm): 0 mm | inhibition halo diameter ([4]; 250 ppm): 0 mm | inhibition halo diameter ([4]; 500 ppm): 0 mm | inhibition halo diameter ([4]; 1000 ppm): 0 mm | inhibition halo diameter ([5]; 125 ppm): 0 mm | inhibition halo diameter ([5]; 250 ppm): 7 mm | inhibition halo diameter ([5]; 500 ppm): 10 mm | inhibition halo diameter ([5]; 1000 ppm): 14 mm | zone of inhibition at 125 ppm ([6]; Penicillium italicum): 0 mm | zone of inhibition at 250 ppm ([6]; Penicillium italicum): 0 mm | zone of inhibition at 500 ppm ([6]; Penicillium italicum): 0 mm | zone of inhibition at 1000 ppm ([6]; Penicillium italicum): 0 mm | inhibition halo diameter ([7]; 125 ppm): 0 mm | inhibition halo diameter ([7]; 250 ppm): 0 mm | inhibition halo diameter ([7]; 500 ppm): 0 mm | inhibition halo diameter ([7]; 1000 ppm): 0 mm | inhibition halo diameter ([8]; 125 ppm): 7 mm | inhibition halo diameter ([8]; 250 ppm): 8 mm | inhibition halo diameter ([8]; 500 ppm): 8 mm | inhibition halo diameter ([8]; 1000 ppm): 10 mm | inhibition halo diameter ([9]; 125 ppm): 0 mm | inhibition halo diameter ([9]; 250 ppm): 0 mm | inhibition halo diameter ([9]; 500 ppm): 0 mm | inhibition halo diameter ([9]; 1000 ppm): 0 mm | inhibition halo diameter ([10]; 125 ppm): 8 mm | inhibition halo diameter ([10]; 250 ppm): 9 mm | inhibition halo diameter ([10]; 500 ppm): 10 mm | inhibition halo diameter ([10]; 1000 ppm): 12 mm

[Na+].[O-]c1ccccc1-c1ccccc1 [30% Na o-phenylphenate, Na o-phenylphenate]
inhibition halo diameter [11, 16]: 0 mm | inhibition halo diameter [11, 17]: 10 mm | inhibition halo diameter [11, 18]: 20 mm | inhibition halo diameter [11, 19]: 35 mm | inhibition halo diameter [4, 16]: 7 mm | inhibition halo diameter [4, 17]: 30 mm | inhibition halo diameter [4, 18]: 35 mm | inhibition halo diameter [4, 19]: 40 mm | inhibition halo diameter [12, 16]: 0 mm | inhibition halo diameter [12, 17]: 0 mm | inhibition halo diameter [12, 18]: 0 mm | inhibition halo diameter [12, 19]: 0 mm | inhibition halo diameter [6, 16]: 20 mm | inhibition halo diameter [6, 17]: 30 mm | inhibition halo diameter [6, 18]: 33 mm | inhibition halo diameter [6, 19]: 53 mm

CCCCS[S+]([O-])CCCC (centres unmarked) [BTS, n-butyl n-butyl thiosulfinate]
inhibition halo diameter [13]: 17 mm | zone of inhibition at 1000 ppm ([6]; Penicillium italicum): 67 mm | inhibition halo diameter [14]: 45 mm | inhibition halo diameter [15]: 20 mm | inhibition halo diameter ([10]; 1000 ppm): 60 mm

c1ccc(-c2ccccc2)cc1 [Biphenyl]
inhibition halo diameter [11, 18]: 0 mm | inhibition halo diameter [11, 19]: 0 mm | inhibition halo diameter [4, 18]: 0 mm | inhibition halo diameter [4, 19]: 0 mm | inhibition halo diameter [12, 18]: 0 mm | inhibition halo diameter [12, 19]: 0 mm | zone of inhibition at 4000 ppm [6, 20]: 7 mm | zone of inhibition at 6000 ppm [6, 20]: 8 mm
